Reference: patent publication US6846907B1, “Osteoporosis treatment” (Hamilton Civic Hospitals Research Centre, priority 1999, dated 2005)
Entries after “also recorded” stand apart in the source; their conditions may differ. Ends that are not written are not given here.

Experiments:
[1] = system: cocultures of murine bone marrow and calvaria cells; experiment: TRAP assay: IL-11 induced osteoclast formation in cocultures of murine bone marrow and calvaria cells; format: cell-based; details: for IL-11 induced osteoclast formation (TRAP+ multinucleated cells): 20 ng/ml IL-11, 10, 100 or 1000 ng/ml test substance, 9 days, FIGS. 7A, 7B, 8, 12
Source text: Particular IL-11 antagonists useful in the treatment of IL-11 related bone density disorders may be identified using the TRAP assay and the bone nodule formation assay, discussed herein. The TRAP assay is known in the art and involves co-culturing murine calvarla (osteoblasts) and bone marrow cells in vitro and then quantifying osteoclast formation by counting the number of tartrate-resistant acid phosphatase positive (TRAP+) multinucleated cells. […] These potential IL-11 antagonists may be screened to determine if they are IL-11 antagonists by examining their activity in the TRAP assay and the bone nodule formation assay.
Post menopausal osteoporosis is characterized by a general reduction in bone mass, resulting from an imbalance between osteoblast-mediated bone formation and bone resorption by the osteoclast. While the osteoblast is responsible for the formation of new bone or osteoid, it also appears to control the activation and/or number of osteoclasts by releasing cytokines such as IL-6 or IL-11. This process can be examined using a “TRAP assay” which involves co-culturing murine calvaria (osteoblasts) and bone marrow cells in vitro and then quantifying osteoclast formation by counting the number of tartrate-resistant acid phosphatase positive (TRAP+) multinucleated cells. Ovariectomized (OVX) rats or mice provide a satisfactory animal model for postmenopausal women in studies of osteoporosis.
The effect of IL-11 on osteoclast development in cocultures of murine bone marrow and calvaria cells was examined using standard techniques. Briefly, bone marrow cultures were established by removing femurs from mice, dissecting away soft tissue, and removing the distal and proximal ends of the femur. The marrow was then flushed with 5 ml α MEM and 1.0% penicilin-streptomycin using a 25 gauge needle. The bone marrow cells were then suspended to a concentration of 5,000,000 cells per ml in α MEM containing 15% fetal calf serum (charcoal treated) to remove cells adherent to plastic. The non-adherent cells were then co cultured for an additional 9 days with murine calvaria cells prior to being fixed and stained for TRAPase activity (stains were obtained from Sigma Chemical Co., St. Louis, Mo.). TRAP+MNC's have the ability to form resorption pits in smooth cortical bone slices and are therefore considered to be of osteoclast origin.
The effect of IL-11 on osteoclast development in cocultures of murine bone marrow and calvaria cells was examined by maintaining these cultures in the presence of various specific concentrations of IL-11 for 9 days. After 9 days of culture, the cells were stained for TRAPase activity and the number of multinucleated TRAP+cells were determined. The results of this experiment are depicted in Table I. Data are expressed as mean +/−SEM. […]

[2] = system: murine calvaria cell culture; experiment: Bone nodule formation assay in the presence of exogenous IL-11 and IL-11 antagonists; format: cell-based; details: 20 ng/ml exogenous IL-11; for reversal of the inhibitory effect of IL-11 on bone nodule formation: 21 days, FIGS. 9, 10
Protocol: Bone nodule formation was measured using standard techniques. Briefly, calvaria cell cultures were established as follows: Calvaria cells were obtained from 2 day old fetal mouse calavariae by collagenase digestion. The cells were then cultured for 21 days in the presence of 0.5 mM ascorbic acid and 10 mM β-glycerophosphate. Where indicated in the experimental descriptions below, IL-11 and the mutant IL-11 receptor of experiment 4 were added to the culture at day 0 and every 3-4 days thereafter until the removal of the medium for analysis. Bone nodule formation was quantified by counting alizarin red stain nodules under a light microscope.
The effect of a gp130 binding region mutant soluble IL-11 receptor of type described in Experiment 4 and produced by the process of Experiment 3 on bone nodule formation in the presence of 20 ng/ml of exogenous IL-11 was assessed, and the results are depicted in FIG. 9. […] Thus, IL-11 antagonists such as mutant IL-11Rs can enhance bone nodule formation.
It was desired to determine if bone nodule formation could be modulated in a manner similar to that reported in Example 6 using an IL-11 antagonist peptide such as the one used in Example 5. To achieve this, the procedure of Example 6 was repeated, with the substitution of peptide 1 for the solubilized mutant IL-11 receptor. The results of this experiment are depicted in FIG. 10.

IL-11/IL-11R interaction = experiment: Inhibition of the productive interaction of IL-11 with IL-11R by IL-11 binding peptides
Interleukin-11 = experiment: cell-based or functional assay
[3] = system: murine calvaria cells (primary osteoblasts); experiment: Bone nodule formation assay, effect of IL-11; format: cell-based; details: various concentrations of IL-11; 250 μM ascorbic acid, 10 mM β-glycerol phosphate; FIG. 5
Protocol: The effect of IL-11 on bone formation was examined using the bone nodule formation assay. Murine calvaria cells (primary osteoblasts) were cultured in the presence of 250 μM ascorbic add and 10 mM β-glycerol phosphate, and in the presence of various amounts of interleukin-11. After culturing, the culture media were plated out and the number of bone nodules per plate was counted. The results are shown on the accompanying FIG. 5, where number of bone nodules per plate is plotted as the vertical axis, with the different concentrations of interleukin on the horizontal axis, not to scale. Each bar represents the result on experiments containing a different concentration of interleukin-11, as noted on FIG. 5.

Molecule | IL-11 induced osteoclast formation (TRAP+ multinucleated cells) [1] | reversal of the inhibitory effect of IL-11 on bone nodule formation [2] | productive interaction of IL-11 with IL-11R (IL-11/IL-11R interaction) | other results
Thr Tyr Pro Ala Ser Trp Pro Cys Gin Pro His Phe Leu Leu Lys Phe Arg Leu Gln Tyr (TYPASWPCQPHFLLKFRLQY; listed as Homo sapiens) [peptide 2] | does not | unable to reduce the inhibition of nodule formation by IL-11 |  | 
RRLRASWTYPASWPCQPHFL [peptide 1] | inhibits IL-11 induced osteoclast formation | able to reduce the inhibitory effects | binds IL-11 and prevents its productive interaction with IL-11R | bone nodule formation relative to control samples ([2]; 50 ng/ml peptide, FIG. 10): allowed bone nodule formation in excess of that seen in the control samples
RRLRASW [SEQ ID NO. 5] |  |  | capable of inhibiting the productive interaction of IL-11 and IL-11R | 
H289→Y289 mutant solubilized IL-11 receptor (from UniProt Q14626 24-370) |  |  |  | concentration allowing enhanced bone nodule formation in the presence of 20 ng/ml exogenous IL-11 (Interleukin-11): 10 ng/mL
Ser Ile Leu Arg Pro Asp Pro Pro Gin Gly Leu Arg Val Glu Ser Val Pro Gly Tyr Pro (SILRPDPPQGLRVESVPGYP; listed as Homo sapiens) [SEQ. ID. NO. 6] |  |  | has been found to inhibit the productive interaction between IL-11 and IL-11R | 
IL-11: cytokine interleukin-11 (protein, UniProt P20809 22-199, looked up) Interleukin-11: PGPPPGPPRVSPDPRAELDSTVLLTRSLLADTRQLAAQLRDKFPADGDHNLDSLPTLAMSAGALGALQLPGVLTRLRADLLSYLRHVQWLRRAGGSSLKTLEPELGTLQARLDRLLRRLQLLMSRLALPQPPPDPPAPPLAPPSSAWGGIRAAHAILGGLHLTLDWAVRGLLLLKTRL |  |  |  | number of bone nodules per plate [3]: number of bone nodules per plate decreased; also recorded: inhibits bone formation; osteoclast formation in vitro, effect of IL-11 ([1]; cocultures of murine calvaria and bone marrow cells): potent stimulator of osteoclast formation
H289→Y289 mutant solubilized IL-11 receptor: gp130 binding region mutant (H289 to Y) recombinant soluble human IL-11 receptor of Example 3 (protein, left off: small tags and cut ends) SPCPQAWGPPGVQYGQPGRSVKLCCPGVTAGDPVSWFRDGEPKLLQGPDSGLGHELVLAQADSTDEGTYICQTLDGALGGTVTLQLGYPPARPVVSCQAADYENFSCTWSPSQISGLPTRYLTSYRKKTVLGADSQRRSPSTGPWPCPQDPLGAARCVVHGAEFWSQYRINVTEVNPLGASTRLLDVSLQSILRPDPPQGLRVESVPGYPRRLRASWTYPASWPCQPHFLLKFRLQYRPAQHPAWSTVEPAGLEEVITDAVAGLPYAVRVSARDFLDAGTWSTWSPEAWGTPSTGTIPKEIPAWGQLHTQPEVEPQVDSPAPPRPSLQPHPRLLDHRDSVEQVAVLA | capable of inhibiting IL-11-induced osteoclast formation | can reverse the effect of exogenous IL-11 |  | bone nodule formation relative to the level in the absence of exogenous IL-11 ([2]; 10 ng/ml mutant receptor, FIG. 9): enhanced bone nodule formation
